Measurements published in ChEMBL document CHEMBL5532672, “Discovery of 2-Ethoxy-5-isobutyramido-N-1-substituted Benzamide Derivatives as Selective Kv2.1 Inhibitors with In Vivo Neuroprotective Effects” (J Med Chem, 2024).

How the values were obtained:
HEK293 [1] = experiment: cells; conditions: Homo sapiens, HEK293, read-out: Activity; at 10 mM
Description: Anti-apoptotic activity in HEK293 cells harbouring Kv2.1 assessed as viable cells at 10 mM by annexin-V and propidium staining based flow cytometry analysis (Rvb = 99.8% )

[2] = biological target: T1, Voltage-gated potassium channel KCNC1 (Homo sapiens, UniProt P48547); experiment: Inhibition of KV3.1 (unknown origin) by whole cell patch-clamp assay
T1 sequence (P48547 whole entry): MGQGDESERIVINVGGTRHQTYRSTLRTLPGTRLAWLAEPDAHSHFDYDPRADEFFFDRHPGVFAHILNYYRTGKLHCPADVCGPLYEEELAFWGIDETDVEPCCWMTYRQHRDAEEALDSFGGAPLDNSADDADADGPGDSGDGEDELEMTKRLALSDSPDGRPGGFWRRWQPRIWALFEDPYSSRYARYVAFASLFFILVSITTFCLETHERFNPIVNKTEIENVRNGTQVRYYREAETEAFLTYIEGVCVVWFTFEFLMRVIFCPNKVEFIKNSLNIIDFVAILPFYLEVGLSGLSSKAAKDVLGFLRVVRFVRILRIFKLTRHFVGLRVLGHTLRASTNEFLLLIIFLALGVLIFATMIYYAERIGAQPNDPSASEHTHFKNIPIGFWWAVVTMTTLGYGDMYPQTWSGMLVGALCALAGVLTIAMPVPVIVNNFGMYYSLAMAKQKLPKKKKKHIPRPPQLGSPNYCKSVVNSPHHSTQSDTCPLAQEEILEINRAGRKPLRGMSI

[3] = Oral bioavailability in Sprague-Dawley rat at 5 mg/kg measured upto 24 hrs by LC/MS/MS analysis; format: ADME, organism-based; conditions: in vivo
HEK293 [4] = experiment: Anti-apoptotic activity in HEK293 cells harbouring Kv2.1 assessed as viable cells at 0.3 uM by annexin-V and propidium staining based flow cytometry analysis (reference value: 99.8%); format: functional; conditions: Homo sapiens, read-out: Activity
[5] = Cmax in Sprague-Dawley rat at 5 mg/kg, po measured upto 24 hrs by LC/MS/MS analysis; format: ADME, organism-based; conditions: in vivo
[6] = MRT (0 to infinity) in Sprague-Dawley rat at 5 mg/kg, po measured upto 24 hrs by LC/MS/MS analysis; format: ADME, organism-based; conditions: in vivo
[7] = Apparent volume of distribution in Sprague-Dawley rat at […], iv measured upto 24 hrs by LC/MS/MS analysis; format: ADME, organism-based; conditions: in vivo, read-out: Vz
[8] = biological target: T2, Potassium voltage-gated channel subfamily B member 1 (Homo sapiens, UniProt Q14721); experiment: Inhibition of human KV2.1 stably expressed in HEK293 cells by whole cell patch-clamp assay; format: cell-based
T2 sequence (Q14721 whole entry): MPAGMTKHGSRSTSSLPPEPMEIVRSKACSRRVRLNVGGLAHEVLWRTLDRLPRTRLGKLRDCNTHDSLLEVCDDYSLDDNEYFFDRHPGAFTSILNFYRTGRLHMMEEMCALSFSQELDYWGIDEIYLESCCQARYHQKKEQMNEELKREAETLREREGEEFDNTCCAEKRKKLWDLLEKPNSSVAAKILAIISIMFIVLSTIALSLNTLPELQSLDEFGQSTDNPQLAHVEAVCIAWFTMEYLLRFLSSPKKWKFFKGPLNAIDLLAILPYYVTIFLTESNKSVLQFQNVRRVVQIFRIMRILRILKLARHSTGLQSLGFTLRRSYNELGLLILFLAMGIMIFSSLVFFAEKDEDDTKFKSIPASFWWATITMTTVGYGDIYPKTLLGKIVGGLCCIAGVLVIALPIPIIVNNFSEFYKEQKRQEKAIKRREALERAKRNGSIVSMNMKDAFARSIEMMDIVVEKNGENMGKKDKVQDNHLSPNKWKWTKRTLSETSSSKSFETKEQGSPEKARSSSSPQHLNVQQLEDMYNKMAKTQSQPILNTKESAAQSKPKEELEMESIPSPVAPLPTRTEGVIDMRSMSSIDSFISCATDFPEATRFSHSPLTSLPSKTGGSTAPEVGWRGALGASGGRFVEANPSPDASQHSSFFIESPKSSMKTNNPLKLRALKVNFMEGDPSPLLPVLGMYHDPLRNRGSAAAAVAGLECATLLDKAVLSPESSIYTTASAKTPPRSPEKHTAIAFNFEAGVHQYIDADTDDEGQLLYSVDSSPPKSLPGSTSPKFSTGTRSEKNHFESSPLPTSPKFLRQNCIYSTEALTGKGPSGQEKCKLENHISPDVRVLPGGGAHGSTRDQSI

[9] = Brain concentration in rat at 5 mg/kg, po measured after 30 mins; format: ADME, organism-based; conditions: read-out: Ct
[10] = Plasma concentration in rat at 1 mg/kg, iv measured after 30 mins; format: ADME, organism-based
[11] = MRT (0 to t) in Sprague-Dawley rat at 5 mg/kg, po measured upto 24 hrs by LC/MS/MS analysis; format: ADME, organism-based; conditions: in vivo
[12] = Cmax in Sprague-Dawley rat at 0.5 mg/kg, iv measured upto 24 hrs by LC/MS/MS analysis; format: ADME, organism-based; conditions: in vivo
[13] = AUC (0 to t) in Sprague-Dawley rat at 0.5 mg/kg, iv measured upto 24 hrs by LC/MS/MS analysis; format: ADME, organism-based; conditions: in vivo
[14] = Tmax in Sprague-Dawley rat at 5 mg/kg, po measured upto 24 hrs by LC/MS/MS analysis; format: ADME, organism-based; conditions: in vivo
[15] = Terminal elimination half life in Sprague-Dawley rat at 0.5 mg/kg, iv measured upto 24 hrs by LC/MS/MS analysis; format: ADME, organism-based; conditions: in vivo, read-out: beta t1/2 (converted)
[16] = Brain concentration in rat at 1 mg/kg, iv measured after 30 mins; format: ADME, organism-based; conditions: read-out: Ct
HEK293 [17] = experiment: Anti-apoptotic activity in HEK293 cells harbouring Kv2.1 assessed as viable cells at 3 uM by annexin-V and propidium staining based flow cytometry analysis (reference value: 99.8%); format: functional; conditions: Homo sapiens, read-out: Activity
[18] = biological target: Potassium voltage-gated channel subfamily A member 5 (Homo sapiens, UniProt P22460); experiment: Inhibition of KV1.5 (unknown origin) by whole cell patch-clamp assay
Potassium voltage-gated channel subfamily A member 5, sequence (P22460 whole entry): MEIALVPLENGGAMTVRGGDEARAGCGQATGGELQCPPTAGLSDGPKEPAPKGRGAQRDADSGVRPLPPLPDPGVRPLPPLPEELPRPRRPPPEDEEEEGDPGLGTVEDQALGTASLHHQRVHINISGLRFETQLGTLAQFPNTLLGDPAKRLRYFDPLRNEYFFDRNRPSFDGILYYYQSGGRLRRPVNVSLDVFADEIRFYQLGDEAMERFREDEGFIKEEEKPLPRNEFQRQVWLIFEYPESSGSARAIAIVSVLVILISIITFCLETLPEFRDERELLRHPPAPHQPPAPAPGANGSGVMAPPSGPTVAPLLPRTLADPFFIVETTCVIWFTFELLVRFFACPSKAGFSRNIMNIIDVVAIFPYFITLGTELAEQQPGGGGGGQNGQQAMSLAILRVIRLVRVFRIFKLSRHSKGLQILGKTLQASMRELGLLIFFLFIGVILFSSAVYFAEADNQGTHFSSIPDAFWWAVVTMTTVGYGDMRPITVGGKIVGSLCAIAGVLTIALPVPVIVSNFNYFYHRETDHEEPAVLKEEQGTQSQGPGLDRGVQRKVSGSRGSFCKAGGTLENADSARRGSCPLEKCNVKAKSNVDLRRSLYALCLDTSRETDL

[19] = Clearance in Sprague-Dawley rat at 0.5 mg/kg, iv measured upto 24 hrs by LC/MS/MS analysis; format: ADME, organism-based; conditions: in vivo
[20] = AUC (0 to infinity) in Sprague-Dawley rat at 0.5 mg/kg, iv measured upto 24 hrs by LC/MS/MS analysis; format: ADME, organism-based; conditions: in vivo
[21] = AUC (0 to infinity) in Sprague-Dawley rat at 5 mg/kg, po measured upto 24 hrs by LC/MS/MS analysis; format: ADME, organism-based; conditions: in vivo
[22] = Terminal elimination half life in Sprague-Dawley rat at 5 mg/kg, po measured upto 24 hrs by LC/MS/MS analysis; format: ADME, organism-based; conditions: in vivo, read-out: beta t1/2 (converted)
[23] = Plasma concentration in rat at 1 mg/kg, iv measured after 15 mins; format: ADME, organism-based
[24] = Plasma concentration in rat at 5 mg/kg, po measured after 30 mins; format: ADME, organism-based
[25] = Brain concentration in rat at 1 mg/kg, iv measured after 15 mins; format: ADME, organism-based; conditions: read-out: Ct
[26] = AUC (0 to t) in Sprague-Dawley rat at 5 mg/kg, po measured upto 24 hrs by LC/MS/MS analysis; format: ADME, organism-based; conditions: in vivo
[27] = MRT (0 to infinity) in Sprague-Dawley rat at 0.5 mg/kg, iv measured upto 24 hrs by LC/MS/MS analysis; format: ADME, organism-based; conditions: in vivo
[28] = biological target: Voltage-gated inwardly rectifying potassium channel KCNH2 (Homo sapiens, UniProt Q12809); experiment: Inhibition of human ERG by whole cell patch-clamp assay; format: toxicity
Voltage-gated inwardly rectifying potassium channel KCNH2, sequence (Q12809 whole entry): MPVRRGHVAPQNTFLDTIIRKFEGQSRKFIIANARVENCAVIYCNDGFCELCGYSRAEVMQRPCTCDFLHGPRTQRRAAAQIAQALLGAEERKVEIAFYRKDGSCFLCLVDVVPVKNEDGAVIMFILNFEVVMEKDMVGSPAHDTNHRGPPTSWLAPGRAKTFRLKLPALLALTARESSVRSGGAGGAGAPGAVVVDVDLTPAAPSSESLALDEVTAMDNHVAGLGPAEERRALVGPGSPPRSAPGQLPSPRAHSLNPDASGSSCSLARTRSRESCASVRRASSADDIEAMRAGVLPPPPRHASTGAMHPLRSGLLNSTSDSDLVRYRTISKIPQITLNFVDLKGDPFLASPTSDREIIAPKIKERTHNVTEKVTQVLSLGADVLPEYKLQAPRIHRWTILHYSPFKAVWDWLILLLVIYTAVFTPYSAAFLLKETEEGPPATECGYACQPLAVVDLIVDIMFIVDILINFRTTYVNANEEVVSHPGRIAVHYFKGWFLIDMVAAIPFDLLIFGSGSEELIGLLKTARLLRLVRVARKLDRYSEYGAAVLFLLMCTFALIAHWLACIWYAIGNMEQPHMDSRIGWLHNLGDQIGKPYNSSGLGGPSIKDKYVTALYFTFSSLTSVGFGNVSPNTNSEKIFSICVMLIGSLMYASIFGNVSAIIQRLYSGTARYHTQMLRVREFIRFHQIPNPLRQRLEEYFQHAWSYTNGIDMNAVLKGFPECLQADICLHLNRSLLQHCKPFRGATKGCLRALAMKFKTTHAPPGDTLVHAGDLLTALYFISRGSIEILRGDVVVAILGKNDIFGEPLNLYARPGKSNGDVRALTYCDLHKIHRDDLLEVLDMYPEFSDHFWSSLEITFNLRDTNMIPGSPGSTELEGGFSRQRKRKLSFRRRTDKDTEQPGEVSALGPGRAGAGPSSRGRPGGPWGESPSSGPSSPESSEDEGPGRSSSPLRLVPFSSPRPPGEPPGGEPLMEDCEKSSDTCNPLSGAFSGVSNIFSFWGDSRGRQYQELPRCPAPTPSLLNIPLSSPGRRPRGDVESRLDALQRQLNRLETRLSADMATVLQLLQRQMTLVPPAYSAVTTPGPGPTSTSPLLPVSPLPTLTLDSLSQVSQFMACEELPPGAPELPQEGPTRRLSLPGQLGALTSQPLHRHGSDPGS

CC[N+](CC)(CC)CC [TETRYLAMMONIUM]
viability at 10000 µM (HEK293 [1]): 58.4%

CCOc1ccc(NC(=O)C(C)C)cc1C(=O)NC(C)c1cccc(NC)c1 (stereo not drawn)
IC50 [2]: > 30 µM
bioavailability [3]: 20.4%
viability at 0.3 µM (HEK293 [4]): 62%
Cmax [5]: 147 ng/mL
MRT inf [6]: 2.52 h
Vd [7]: 2.1 L/kg
IC50 [8]: 0.07 µM
concentration at 0.5 h [9]: 54.9 ng/g
concentration at 0.5 h [10]: 235 ng/mL
MRT last at 24 h [11]: 2.05 h
Cmax [12]: 693 ng/mL
AUC(0-t) at 24 h [13]: 174 ng·h/mL
Tmax [14]: 0.65 h
half-life [15]: 0.51 h
concentration at 0.5 h [16]: 14.6 ng/g
viability at 3 µM (HEK293 [17]): 55.4%
IC50 [18]: 9.2 µM
clearance [19]: 48 mL/min/kg
AUC(0-inf) [20]: 174 ng·h/mL
AUC(0-inf) [21]: 355 ng·h/mL
half-life [22]: 1.89 h
concentration at 0.25 h [23]: 539 ng/mL
concentration at 0.5 h [24]: 580 ng/mL
concentration at 0.25 h [25]: 38.2 ng/g
AUC(0-t) at 24 h [26]: 337 ng·h/mL
MRT inf [27]: 1.39 h
IC50 [28]: 30 µM
